In this experiment the test system is nude mice, LOX melanoma ip, survival T/C. The experiment in a line: NCI In Vivo Anticancer Drug Screen. Data for tumor model Human Amelanotic Melanoma (LOX) (intraperitoneal) in NU/NU BALB/C (nude) mice. The settings on record: endpoint: median survival time, schedule: Q04DX003 (ip), higher = longer survival. Here is the method: The antitumor activity of compounds was measured in mice bearing transplantable tumors. Survival or tumor size were measured and the results are expressed as the measurement made in the treated group (T) divided by the measurement made in the vehicle treated control group (C). The tumor model used in this assay is Human Amelanotic Melanoma (LOX) (intraperitoneal) in NU/NU BALB/C (nude) mice

Setting [1] is: dose: 37.5 mg/kg/injection, vehicle: Klucel (hydroxypropylcellulose) (HPC).
[2] abbreviates: dose: 75.0 mg/kg/injection, vehicle: Klucel (hydroxypropylcellulose) (HPC).
Where [3] appears, read: dose: 25.0 mg/kg/injection, vehicle: Klucel (hydroxypropylcellulose) (HPC).
Where [4] appears, read: dose: 50.0 mg/kg/injection, vehicle: Klucel (hydroxypropylcellulose) (HPC).
[5] abbreviates: dose: 100.0 mg/kg/injection, vehicle: Klucel (hydroxypropylcellulose) (HPC).
[6] abbreviates: dose: 75.0 mg/kg/injection, vehicle: water.
The mark [7] stands for this setting: dose: 150.0 mg/kg/injection, vehicle: water.
[8] abbreviates: dose: 18.75 mg/kg/injection, vehicle: water.
Setting [9] is: dose: 37.5 mg/kg/injection, vehicle: water.
Where [10] appears, read: dose: 37.5 mg/kg/injection, vehicle: saline with Tween-80.
Where [11] appears, read: dose: 75.0 mg/kg/injection, vehicle: saline with Tween-80.
[12] abbreviates: dose: 150.0 mg/kg/injection, vehicle: saline with Tween-80.
[13] abbreviates: dose: 300.0 mg/kg/injection, vehicle: saline with Tween-80.

The values below come from PubChem BioAssay AID280 (DTP/NCI, 2004).

SMILES strings stand for the structures. Where “and” joins values, the source holds several entries; their conditions need not be identical. Equal values may be shown once. Inconclusive results and toxic doses are left out.

`O=[N+]([O-])c1ccc([I+]c2ccccc2)cc1`: the T/C is 121 % of control (dose: 9.38 mg/kg/injection, vehicle: Klucel (hydroxypropylcellulose) (HPC)); 115 % of control (dose: 16.2 mg/kg/injection, vehicle: Klucel (hydroxypropylcellulose) (HPC)); 114 % of control and 101 % of control (dose: 27.0 mg/kg/injection, vehicle: Klucel (hydroxypropylcellulose) (HPC)); 108 % of control under setting [1]; 105 % of control and 120 % of control (dose: 45.0 mg/kg/injection, vehicle: Klucel (hydroxypropylcellulose) (HPC)); 93 % of control under setting [2].
With `CC1=C(C(N)=O)C(c2ccccc2)NC(=S)N1` (stereo not drawn), the T/C runs as follows: under setting [3], 96 % of control; under setting [4], 98 % of control; under setting [5], 97 % of control; (dose: 200.0 mg/kg/injection, vehicle: Klucel (hydroxypropylcellulose) (HPC)) 95 % of control; (dose: 400.0 mg/kg/injection, vehicle: Klucel (hydroxypropylcellulose) (HPC)) 86 % of control.
In the case of `CC1=CC=CC(C)(C)C(O)C1=O` (stereo not drawn), the T/C runs as follows: (dose: 18.75 mg/kg/injection, vehicle: Klucel (hydroxypropylcellulose) (HPC)) 98 % of control; under setting [1], 94 % of control; under setting [2], 98 % of control; (dose: 150.0 mg/kg/injection, vehicle: Klucel (hydroxypropylcellulose) (HPC)) 98 % of control; (dose: 300.0 mg/kg/injection, vehicle: Klucel (hydroxypropylcellulose) (HPC)) 93 % of control.
For the molecule `COc1ccc(N=N/N=c2\sc3cc(OC)ccc3n2C)cc1`, the T/C is, setting by setting: (dose: 15.0 mg/kg/injection, vehicle: saline with Tween-80) 121 % of control; (dose: 30.0 mg/kg/injection, vehicle: saline with Tween-80) 117 % of control; (dose: 120.0 mg/kg/injection, vehicle: saline with Tween-80) 121 % of control.
Take `CC(=O)NO`: the T/C runs as follows: under setting [6], 101 % of control; under setting [7], 101 % of control; (dose: 300.0 mg/kg/injection, vehicle: water) 103 % of control; (dose: 600.0 mg/kg/injection, vehicle: water) 103 % of control; (dose: 1200.0 mg/kg/injection, vehicle: water) 92 % of control.
`Oc1cccc2ccccc12`: the T/C by setting is: under setting [8], 98 % of control; under setting [9], 102 % of control; under setting [6], 106 % of control; under setting [7], 102 % of control.
In the case of `O=c1[nH]cnc2c1nnn2C1OC(CO)C(O)C1O` (stereo not drawn), the T/C was 123 % of control (dose: 180.0 mg/kg/injection, vehicle: suspension in saline) and 153 % of control (dose: 833.0 mg/kg/injection, vehicle: suspension in saline).
With `CCC1(O)C(=O)OCc2c1cc1n(c2=O)Cc2cc3cc(N)ccc3nc2-1` (stereo not drawn), the T/C runs as follows: (dose: 3.75 mg/kg/injection, vehicle: suspension in saline) 324 % of control; (dose: 4.0 mg/kg/injection, vehicle: saline) 189 % of control; (dose: 7.0 mg/kg/injection, vehicle: saline) 355 % of control; (dose: 7.5 mg/kg/injection, vehicle: suspension in saline) 324 % of control; (dose: 12.0 mg/kg/injection, vehicle: saline) 355 % of control; (dose: 15.0 mg/kg/injection, vehicle: suspension in saline) 324 % of control. Further, the T/C (dose: 20.0 mg/kg/injection, vehicle: saline) is 355 % of control and the T/C (dose: 33.0 mg/kg/injection, vehicle: saline) is 355 % of control.
As for `N=C(N)SCc1cccc2c(=O)cc(-c3ccccc3)oc12`, the T/C reads like this: (dose: 25.0 mg/kg/injection, vehicle: suspension in saline) 101 % of control; (dose: 50.0 mg/kg/injection, vehicle: suspension in saline) 111 % of control; (dose: 100.0 mg/kg/injection, vehicle: suspension in saline) 118 % of control; (dose: 400.0 mg/kg/injection, vehicle: suspension in saline) 124 % of control.
Regarding `O=C(/C=C/c1cccnc1)/C=C/c1cccnc1`, the T/C is, setting by setting: (dose: 6.25 mg/kg/injection, vehicle: Klucel (hydroxypropylcellulose) (HPC)) 104 % of control; (dose: 12.5 mg/kg/injection, vehicle: Klucel (hydroxypropylcellulose) (HPC)) 105 % of control; under setting [3], 111 % of control; under setting [4], 116 % of control; under setting [5], 88 % of control.
Regarding `COc1ccc(C[C@@H]2NC[C@@H](O)[C@@H]2OC(C)=O)cc1`, the T/C runs as follows: under setting [10], 101 % of control; under setting [11], 101 % of control; under setting [12], 103 % of control; under setting [13], 101 % of control.
For `Cc1cc(Nc2ccc3c(c2)OCO3)c2cc3c(cc2n1)OCO3`, the T/C under setting [2] is 106 % of control; the T/C (dose: 600.0 mg/kg/injection, vehicle: Klucel (hydroxypropylcellulose) (HPC)) is 152 % of control and 158 % of control.
In the case of `CCCCCCCCCCCCCCCCCCOCC(CO)OC` (stereo not drawn), the T/C was 150 % of control and 151 % of control under setting [12]; 160 % of control under setting [13].
With `[Cl][Pt][Cl].[NH-]C(CO)C(=O)O` (stereo not drawn), the T/C (dose: 9.38 mg/kg/injection, vehicle: water) was 119 % of control; the T/C under setting [8] was 114 % of control; the T/C under setting [9] is 123 % of control.
On to `O=C(O)Cc1cccc2c(=O)cc(-c3ccccc3)oc12`, for which the T/C is, setting by setting: (dose: 25.0 mg/kg/injection, vehicle: sodium bicarbonate) 108 % of control; (dose: 50.0 mg/kg/injection, vehicle: sodium bicarbonate) 119 % of control.
In the case of `c1ccc(OCC2CO2)c(OCC2CO2)c1` (stereo not drawn), the T/C was 118 % of control under setting [10], 109 % of control under setting [11] and 265 % of control under setting [13].
Take `COc1cccc2c1C(CO)N1C(C#N)C3CC(C(=O)O)C(C1C2)N3C` (stereo not drawn): the T/C was 175 % of control (dose: 12.5 mg/kg/injection, vehicle: saline); 164 % of control (dose: 12.5 mg/kg/injection, vehicle: suspension in saline); 157 % of control (dose: 25.0 mg/kg/injection, vehicle: saline).
In the case of `Nc1n[nH]c2ccccc12`, the T/C was 107 % of control (dose: 75.0 mg/kg/injection, vehicle: other) and 98 % of control (dose: 150.0 mg/kg/injection, vehicle: other).
Regarding `c1cn[nH]c1`, the T/C was 109 % of control (dose: 75.0 mg/kg/injection, vehicle: saline) and 107 % of control (dose: 150.0 mg/kg/injection, vehicle: saline).
As for `O=C1C=CC2OC(c3ccccc3)C(O)C2O1` (stereo not drawn), the T/C is, setting by setting: (dose: 12.5 mg/kg/injection, vehicle: DMSO) 105 % of control; (dose: 25.0 mg/kg/injection, vehicle: DMSO) 103 % of control; (dose: 50.0 mg/kg/injection, vehicle: DMSO) 103 % of control.
